In ChEMBL document CHEMBL5442379, “ASAP - SARS-CoV-2 nsp3 macrodomain single point” (2024):

Molecular target: Replicase polyprotein 1ab (Severe acute respiratory syndrome coronavirus 2) (UniProt P0DTD1)
Description: Functional biochemical assay to identify treatments for viral infectious disease that targets SARS-COV-2 nsp3 macrodomain, whereby the mechanism of action displaces an ADP-Ribose modified peptide from the binding site. Utilizing a time-resolved fluorescence method to measure binding by reading the emitted fluorescence intensity in two wavelengths.

Nc1ncnc2c1ncn2Cc1cccc2ncnn12
inhibition (Concentration 49.75 uM, Number of replicates 2.0, Standard deviation 0.496 %): -0.553% | inhibition (Concentration 99.5 uM, Number of replicates 2.0, Standard deviation 1.809 %): -3.16%

O=C(Nc1ccccc1)Nc1ccc(C(=O)N[C@H]2CC[C@H](CO)CC2)cc1
inhibition (Concentration 49.75 uM, Number of replicates 2.0, Standard deviation 1.388 %): -0.639% | inhibition (Concentration 99.5 uM, Number of replicates 2.0, Standard deviation 3.79 %): -2.58%

Cc1nc(C(=O)N2CCC(c3ccn4ncc(C(=O)N5CCCCC5)c4c3)CC2)c(=O)[nH]c1C
inhibition (Concentration 49.75 uM, Number of replicates 2.0, Standard deviation 2.437 %): 26.4% | inhibition (Concentration 99.5 uM, Number of replicates 2.0, Standard deviation 0.005 %): 44.2%

Cc1c[nH]nc1C(=O)N1CCC(c2ccn3ncc(C(=O)N4CCCCC4)c3c2)CC1
inhibition (Concentration 49.75 uM, Number of replicates 2.0, Standard deviation 6.018 %): 8.47% | inhibition (Concentration 99.5 uM, Number of replicates 2.0, Standard deviation 4.753 %): 27.4%

Cc1cc(NCc2ncccc2O)ncn1
inhibition (Concentration 50.0 uM, Number of replicates 2.0, Standard deviation 4.706 %): -3.33%

Cc1nc(NC(=O)c2nccc3ccncc23)c2cc[nH]c2n1
inhibition (Concentration 50.0 uM, Number of replicates 2.0, Standard deviation 2.951 %): -5.83% | inhibition (Concentration 100.0 uM, Number of replicates 2.0, Standard deviation 4.025 %): 2.61%

Cn1cc(NC(=O)c2ccc(NC(=O)Nc3ccccc3)cc2)c(C#N)n1
inhibition (Concentration 49.75 uM, Number of replicates 2.0, Standard deviation 0.991 %): 2.49% | inhibition (Concentration 99.5 uM, Number of replicates 2.0, Standard deviation 1.521 %): -0.539%

O=C(Nc1cnn(C2CCNCC2)c1)c1ncnc2[nH]ccc12
inhibition (Concentration 50.0 uM, Number of replicates 2.0, Standard deviation 5.148 %): -1.9%

CNC[C@@H]1CCCN1C(=O)c1cnn2ccc(C3CCN(C(=O)c4ccccc4)CC3)cc12
inhibition (Concentration 49.75 uM, Number of replicates 2.0, Standard deviation 1.186 %): -1.47% | inhibition (Concentration 99.5 uM, Number of replicates 2.0, Standard deviation 2.864 %): -2.2%

O=C(Nc1cnc2[nH]ncc2c1)c1noc2c1CCCC2
inhibition (Concentration 50.0 uM, Number of replicates 2.0, Standard deviation 0.458 %): -1.4%

Cc1ccc(C(=O)N(CCC(=O)N2CCNCC2)Cc2cccc(Cl)c2)[nH]1
inhibition (Concentration 49.75 uM, Number of replicates 2.0, Standard deviation 5.038 %): -5.9% | inhibition (Concentration 99.5 uM, Number of replicates 2.0, Standard deviation 2.609 %): -3.94%

Cn1nncc1C(=O)N(CCC(=O)N1CCNCC1)Cc1cccc(Cl)c1
inhibition (Concentration 49.75 uM, Number of replicates 2.0, Standard deviation 1.263 %): 0.447% | inhibition (Concentration 99.5 uM, Number of replicates 2.0, Standard deviation 1.735 %): -2.15%

CN(CCOc1ccccc1)c1ncnc2[nH]ccc12
inhibition (Concentration 50.0 uM, Number of replicates 2.0, Standard deviation 4.668 %): -2.26%

Cn1nc(NC(=O)c2cc3nccn3c(=O)[nH]2)c2nccnc21
inhibition (Concentration 50.0 uM, Number of replicates 2.0, Standard deviation 4.143 %): -1.91%

O=C(c1cncc(O)n1)N1CCC(c2ccn3ncc(C(=O)N4CCCCC4)c3c2)CC1
inhibition (Concentration 49.75 uM, Number of replicates 2.0, Standard deviation 0.648 %): 26.6% | inhibition (Concentration 99.5 uM, Number of replicates 2.0, Standard deviation 1.31 %): 41.9%

C[C@@H](Nc1ncnc2[nH]ccc12)c1cnn(CC2CCC2)c1
inhibition (Concentration 49.75 uM, Number of replicates 2.0, Standard deviation 1.153 %): -0.451% | inhibition (Concentration 99.5 uM, Number of replicates 2.0, Standard deviation 1.366 %): 4.9%

C[C@H](NC(=O)c1ccc(NC(=O)Nc2ccccc2)cc1)c1ccccn1
inhibition (Concentration 49.75 uM, Number of replicates 2.0, Standard deviation 2.561 %): 2.45% | inhibition (Concentration 99.5 uM, Number of replicates 2.0, Standard deviation 6.365 %): 0.349%

c1nc(N2CCC[C@@H](c3nc4c(s3)CCC4)C2)c2c[nH]nc2n1
inhibition (Concentration 50.0 uM, Number of replicates 2.0, Standard deviation 1.131 %): 3.83%

COc1cccc2cc(CNc3cnc4[nH]ncc4c3)oc12
inhibition (Concentration 50.0 uM, Number of replicates 2.0, Standard deviation 5.215 %): -4.29%

CC(C)c1c[nH]nc1NC(=O)c1ccc(NC(=O)Nc2ccccc2)cc1
inhibition (Concentration 49.75 uM, Number of replicates 2.0, Standard deviation 3.059 %): 6.99% | inhibition (Concentration 99.5 uM, Number of replicates 2.0, Standard deviation 3.555 %): 8.5%

Cc1[nH]c2ncnc(NC(=O)[C@@H]3CCO[C@@H]3C)c2c1C
inhibition (Concentration 50.0 uM, Number of replicates 2.0, Standard deviation 0.696 %): 35.1%

O=C(O)[C@H]1CCCCCN1C(=O)c1ncnc2[nH]ccc12
inhibition (Concentration 50.0 uM, Number of replicates 2.0, Standard deviation 6.117 %): 11.8%

Fc1ccc(Oc2cc(CNc3ncnc4nc[nH]c34)ccn2)cc1
inhibition (Concentration 50.0 uM, Number of replicates 2.0, Standard deviation 7.991 %): 2.01%

O=C(CCN(Cc1cccc(Cl)c1)C(=O)c1ccc(F)cn1)N1CCNCC1
inhibition (Concentration 49.75 uM, Number of replicates 2.0, Standard deviation 0.987 %): 6.76% | inhibition (Concentration 99.5 uM, Number of replicates 2.0, Standard deviation 1.391 %): 6.74%

CCO[C@@H]1C[C@@H](Nc2ncnc3[nH]ccc23)C12CCOCC2
inhibition (Concentration 50.0 uM, Number of replicates 2.0, Standard deviation 3.029 %): 2.32%

O=C(c1ccc(O)nc1)N1CCC(c2ccn3ncc(C(=O)N4CCCCC4)c3c2)CC1
inhibition (Concentration 49.75 uM, Number of replicates 2.0, Standard deviation 5.093 %): 11% | inhibition (Concentration 99.5 uM, Number of replicates 2.0, Standard deviation 0.548 %): 26.5%

c1nc(-c2nc(-c3cc(C4CC4)[nH]n3)no2)c2cc[nH]c2n1
inhibition (Concentration 50.0 uM, Number of replicates 2.0, Standard deviation 1.585 %): -4.8% | inhibition (Concentration 50.0 uM, Number of replicates 2.0, Standard deviation 2.643 %): -2.81% | inhibition (Concentration 100.0 uM, Number of replicates 2.0, Standard deviation […]): -2.45%

COc1ccccc1CN(C[C@@H]1CCCO1)c1ncnc2[nH]ccc12
inhibition (Concentration 50.0 uM, Number of replicates 2.0, Standard deviation 1.448 %): 4.74%

c1ccc2sc([C@@H]3CCCN(c4ncnc5[nH]ccc45)C3)nc2c1
inhibition (Concentration 50.0 uM, Number of replicates 2.0, Standard deviation 1.364 %): -0.779%

CC(C)[C@@H]1[C@H](O)CCN1c1ncnc2[nH]ccc12
inhibition (Concentration 49.75 uM, Number of replicates 2.0, Standard deviation 3.675 %): 17.7% | inhibition (Concentration 99.5 uM, Number of replicates 2.0, Standard deviation 0.827 %): 32.1%

COCc1nc(CNc2c(C#N)c(C)nn2C)cs1
inhibition (Concentration 50.0 uM, Number of replicates 2.0, Standard deviation 4.858 %): 0.8%

O=C(O)c1cscc1C(=O)N1CCC(c2ccn3ncc(C(=O)N4CCCCC4)c3c2)CC1
inhibition (Concentration 50.0 uM, Number of replicates 2.0, Standard deviation 2.729 %): 47.7% | inhibition (Concentration 100.0 uM, Number of replicates 2.0, Standard deviation 0.311 %): 66.7%

c1ccc(CN2CCO[C@@H](CNc3ncnc4nc[nH]c34)C2)cc1
inhibition (Concentration 50.0 uM, Number of replicates 2.0, Standard deviation 1.424 %): -2.44%

Cc1n[nH]nc1C(=O)N1CCC(c2ccn3ncc(C(=O)N4CCCCC4)c3c2)CC1
inhibition (Concentration 49.75 uM, Number of replicates 2.0, Standard deviation 0.483 %): 29.3% | inhibition (Concentration 99.5 uM, Number of replicates 2.0, Standard deviation 0.403 %): 45.8%

Cn1c(C(=O)NCCNC(=O)c2ccco2)cc2c(=O)n3ccccc3nc21
inhibition (Concentration 50.0 uM, Number of replicates 2.0, Standard deviation 1.378 %): -4.47%

CC(C)(CCNc1ncnc2[nH]ccc12)S(C)(=O)=O
inhibition (Concentration 50.0 uM, Number of replicates 2.0, Standard deviation 3.874 %): 0.75%

CCCNC(=O)[C@H]1CCCN(c2ncnc3[nH]ccc23)C1
inhibition (Concentration 50.0 uM, Number of replicates 2.0, Standard deviation 0.927 %): -4.36%

COC(=O)[C@]1(F)CCN(C(=O)c2ccc(NC(=O)Nc3ccccc3)cc2)C1
inhibition (Concentration 49.75 uM, Number of replicates 2.0, Standard deviation 1.195 %): -0.893% | inhibition (Concentration 99.5 uM, Number of replicates 2.0, Standard deviation 2.11 %): 0.834%

O=C(c1ncc[nH]1)N1CCC(c2ccn3ncc(C(=O)N4CCCCC4)c3c2)CC1
inhibition (Concentration 49.75 uM, Number of replicates 2.0, Standard deviation 1.065 %): 18.5% | inhibition (Concentration 99.5 uM, Number of replicates 2.0, Standard deviation 3.121 %): 37.2%

CC(C)NC(=O)[C@@H]1CCCN(c2ncnc3[nH]ccc23)C1
inhibition (Concentration 50.0 uM, Number of replicates 2.0, Standard deviation 0.005 %): 1.78%

FC(F)(F)CO[C@@H]1CCCN(c2ncnc3[nH]ccc23)C1
inhibition (Concentration 50.0 uM, Number of replicates 2.0, Standard deviation 28.677 %): 22.2%

CN(Cc1nccn1Cc1ccccc1)c1ncnc2[nH]ccc12
inhibition (Concentration 50.0 uM, Number of replicates 2.0, Standard deviation 2.394 %): -7.22% | inhibition (Concentration 100.0 uM, Number of replicates 2.0, Standard deviation 1.584 %): -8.82%

CO[C@@H]1CCCN(C(=O)c2cnn3ccc(C4CCN(C(=O)c5ccccc5)CC4)cc23)C1
inhibition (Concentration 49.75 uM, Number of replicates 2.0, Standard deviation 1.69 %): 22.6% | inhibition (Concentration 99.5 uM, Number of replicates 2.0, Standard deviation 3.272 %): 39.8%

c1nc(NCc2cnc3sccn23)c2[nH]cnc2n1
inhibition (Concentration 50.0 uM, Number of replicates 2.0, Standard deviation 7.011 %): -4.78% | inhibition (Concentration 100.0 uM, Number of replicates 2.0, Standard deviation 4.457 %): 5.65%

Cc1ncc(NCc2cc3n(n2)CCOC3)cc1C(N)=O
inhibition (Concentration 50.0 uM, Number of replicates 2.0, Standard deviation 4.482 %): 0.46%

CCc1n[nH]c(NC(=O)c2ccc(NC(=O)Nc3ccccc3)cc2)c1Br
inhibition (Concentration 49.75 uM, Number of replicates 2.0, Standard deviation 2.077 %): -5.57% | inhibition (Concentration 99.5 uM, Number of replicates 2.0, Standard deviation 0.313 %): 0.467%

Oc1ccccc1CNc1ncnc2[nH]cnc12
inhibition (Concentration 50.0 uM, Number of replicates 2.0, Standard deviation 0.892 %): 1.9%

COc1cccc(NC(=O)c2ccc(NC(=O)Nc3ccccc3)cc2)n1
inhibition (Concentration 49.75 uM, Number of replicates 2.0, Standard deviation 3.541 %): 4.65% | inhibition (Concentration 99.5 uM, Number of replicates 2.0, Standard deviation 3.473 %): 5.37%

CC(C)[C@@H](Nc1ncnc2[nH]ccc12)C(F)F
inhibition (Concentration 49.75 uM, Number of replicates 2.0, Standard deviation 1.25 %): 81.6% | inhibition (Concentration 99.5 uM, Number of replicates 2.0, Standard deviation 1.983 %): 91.7%

O=C(c1ccncc1)N1CCC(c2ccn3ncc(C(=O)N4CCCCC4)c3c2)CC1
inhibition (Concentration 49.75 uM, Number of replicates 2.0, Standard deviation 1.966 %): 10.8% | inhibition (Concentration 99.5 uM, Number of replicates 2.0, Standard deviation 0.415 %): 26.5%

Cc1cccc([C@@H]2CCCN2c2ncnc3[nH]ccc23)n1
inhibition (Concentration 50.0 uM, Number of replicates 2.0, Standard deviation 4.141 %): 0.182%
